Literature values in patent EP4616878A1, “CANNULA FOR RECTAL ADMINISTRATION OF AN ENEMA AND COMPOSITIONS FOR USE THEREWITH” (Cosmo Technologies Ltd., priority 2024, dated 2025).

Key:
nuclear factor-KB (NFκB) = details: cell line which lacks PXR expression
[1] = biological target: T1, pregnane X receptor (PXR) (Homo sapiens, UniProt O75469); details: liver and intestinal cell lines; also downstream targets CYP3A4 and PgP
T1 sequence (O75469 1-434): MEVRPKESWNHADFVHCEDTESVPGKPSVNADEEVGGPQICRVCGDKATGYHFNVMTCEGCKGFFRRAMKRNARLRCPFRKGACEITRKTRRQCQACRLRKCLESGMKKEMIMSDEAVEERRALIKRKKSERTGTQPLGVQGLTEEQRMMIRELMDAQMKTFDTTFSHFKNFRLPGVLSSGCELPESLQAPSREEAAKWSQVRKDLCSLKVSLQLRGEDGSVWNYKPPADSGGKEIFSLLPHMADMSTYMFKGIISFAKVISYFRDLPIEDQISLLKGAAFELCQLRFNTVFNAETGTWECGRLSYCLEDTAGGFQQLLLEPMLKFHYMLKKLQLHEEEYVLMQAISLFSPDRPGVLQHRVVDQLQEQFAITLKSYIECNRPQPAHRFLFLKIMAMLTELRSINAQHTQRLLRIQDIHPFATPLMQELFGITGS

[2] = in vivo

- effect on PXR [1]: activate
- absorption in the bloodstream [2]: negligible
Compound: CO[C@H]1/C=C/O[C@@]2(C)Oc3c(C)c(O)c4c(O)c(cc(O)c4c3C2=O)NC(=O)/C(C)=C\C=C\[C@H](C)[C@H](O)[C@@H](C)[C@@H](O)[C@@H](C)[C@H](OC(C)=O)[C@@H]1C [Rifamycin, Rifamycin SV]
- effect on NFκB (nuclear factor-KB (NFκB)): directly inhibited
